Earlier results in patent publication US12178851B2, “Methods for administering STING agonists” (GlaxoSmithKline Intellectual Property Development Limited, priority 2017, dated 2024).

Experiments:
[1] = tested on: CT26 syngeneic model
[2] = tested on: CT26 syngeneic model; conditions: 20 daily i.v. doses of 20 mg/kg, dosed 4 h after injection of the tumor cells

For `Cc1ccc2c(=O)c3cccc(CC(=O)O)c3oc2c1C` [DMXAA, 5,6-Dimethylxanthenone-4-Acetic Acid], the “maximally tolerated i.p. dose” value ([1]; mouse, in vivo, ip) is listed as roughly 99 µmol/kg, the “cytokine levels in tumor and blood” value ([1]; once at 500 ug/mouse i.p.) is listed as “high cytokine levels both in the tumor and the blood” and the tumor growth inhibition ([1]; once at 500 ug/mouse i.p., established tumors) is listed as “potently inhibits tumor growth, leading to cures in mice”.

For `Nc1nc2c(ncn2[C@@H]2O[C@@H]3COP(=O)(O)O[C@H]4[C@@H](O)[C@H](n5cnc6c(N)ncnc65)O[C@@H]4COP(=O)(O)O[C@@H]2[C@@H]3O)c(=O)[nH]1` [2′3′-cGAMP], the “efficacy in CT26 model” value [2] is listed as “some efficacy”.
